The record followed here is PubChem BioAssay (NCI).

A word on the GI50: it is the concentration giving 50% growth inhibition. For orientation: TGI means the concentration at which net growth stops.

Structures are written as SMILES.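 Where inhibition never reached the appropriate level, the endpoint shown equals the highest concentration tested. Otherwise, values were interpolated linearly from a five-concentration, 48-hour dose response in 96-well plates. GI50 is the concentration that inhibits growth by half. The concentration for full growth arrest is given as TGI.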 Where only a bound is given, the exact number is not on record here.

Test systems include SK-MEL-5 melanoma; MALME-3M melanoma; SNB-19 CNS; SN12C renal; SK-MEL-28 melanoma; NCI-H522 lung; HS 578T breast; SR leukemia; U251 CNS; CCRF-CEM leukemia.
Assay in all cases: DTP human tumour cell line panel, 48 h

On to `C#CCNC(=O)CC[C@]1(C)[C@H]2CC[C@@H]3[C@@H]([C@@](C)(O)CCC=C(C)C)CC[C@@]3(C)[C@]2(C)CC[C@H]1C(=C)C`, for which the GI50 in the assay with SK-MEL-5 melanoma is 38.8 µM; in the assay with MALME-3M melanoma it was 16.4 µM; in the assay with SNB-19 CNS, 56.1 µM; in the assay with SN12C renal, 31.8 µM; in the assay with SK-MEL-28 melanoma, 26.9 µM; with NCI-H522 lung it was 15.2 µM. Besides, the GI50 was 50.2 µM with HS 578T breast, 3.05 µM with SR leukemia, 20.1 µM with U251 CNS and 6.77 µM in the assay on CCRF-CEM leukemia. The TGI in the assay on SK-MEL-5 melanoma was over 100 µM; in the assay with MALME-3M melanoma it was 35 µM; in the assay on SNB-19 CNS, over 100 µM; with SN12C renal, over 100 µM; in the assay with SK-MEL-28 melanoma it was 80 µM; in the assay with NCI-H522 lung it was 35.1 µM. Moreover, the TGI was over 100 µM in the assay with HS 578T breast, 19.2 µM in the assay on SR leukemia, 49.5 µM in the assay on U251 CNS and 28.7 µM in the assay with CCRF-CEM leukemia.
With `CCOC(=O)c1c(C)n2c(=O)cc(C)c3c(OC(C)=O)c(OC(C)=O)cc1c32`, the GI50 in the assay with SK-MEL-5 melanoma was 3.78 µM; in the assay on MALME-3M melanoma, 9.93 µM; in the assay with SNB-19 CNS it was 5.71 µM; in the assay with SN12C renal, 4.97 µM; in the assay on SK-MEL-28 melanoma, 4.87 µM; with NCI-H522 lung, 4.11 µM. Further, the GI50 with HS 578T breast was 4.52 µM; in the assay on SR leukemia, 2.78 µM; in the assay on U251 CNS, 4.76 µM; in the assay with CCRF-CEM leukemia, 1.44 µM. The TGI in the assay with SK-MEL-5 melanoma is 13.4 µM; with MALME-3M melanoma, 35.5 µM; in the assay with SNB-19 CNS, over 65 µM; in the assay on SN12C renal, 28.2 µM; with SK-MEL-28 melanoma, 22.5 µM; with NCI-H522 lung it was 15.1 µM. Moreover, the TGI with HS 578T breast was over 65.2 µM; with SR leukemia, over 32.2 µM; in the assay on U251 CNS it was over 57.7 µM; with CCRF-CEM leukemia it was 6.45 µM.
As to `CC(=O)OC[C@]12CC[C@@H]([C@@H](C)C(N)=O)[C@@H]1[C@H]1CC[C@@H]3[C@@]4(C)CC[C@H](OC(C)=O)C(C)(C)[C@@H]4CC[C@@]3(C)[C@]1(C)CC2`, the GI50 in the assay with SK-MEL-5 melanoma is 3.8 µM; in the assay with MALME-3M melanoma, 10.5 µM; with SNB-19 CNS, 11.9 µM; with SN12C renal it was 5.65 µM; in the assay with SK-MEL-28 melanoma, 12 µM; with NCI-H522 lung, 4.94 µM. For the same compound, the GI50 in the assay with HS 578T breast was 12.4 µM; in the assay with SR leukemia, 3.32 µM; with U251 CNS, 5.1 µM; with CCRF-CEM leukemia it was 5.19 µM. Also, the TGI came to 13.1 µM in the assay on SK-MEL-5 melanoma; 24.2 µM in the assay with MALME-3M melanoma; 29.1 µM in the assay on SNB-19 CNS; 18.8 µM in the assay on SN12C renal; 27.3 µM with SK-MEL-28 melanoma; 20.7 µM in the assay with NCI-H522 lung. Moreover, the TGI in the assay on HS 578T breast stood at 38.6 µM; in the assay on SR leukemia it was 23.5 µM; in the assay with U251 CNS, 20.4 µM; in the assay with CCRF-CEM leukemia, 30 µM.
`COc1ccc(C2=C(c3cc(OC)c(OC)c(OC)c3)C(=O)CC2)cc1`: the GI50 in the assay on SK-MEL-5 melanoma was 0.123 µM; in the assay on MALME-3M melanoma it was over 100 µM; in the assay on SNB-19 CNS, 0.41 µM; in the assay with SN12C renal, 0.676 µM; in the assay with SK-MEL-28 melanoma, 0.489 µM; in the assay with NCI-H522 lung, 0.0671 µM. Besides, the GI50 is 0.0827 µM with HS 578T breast, 0.0335 µM in the assay on SR leukemia, 0.324 µM in the assay with U251 CNS and 0.21 µM in the assay with CCRF-CEM leukemia. Besides, the TGI was 6.24 µM in the assay on SK-MEL-5 melanoma; over 100 µM in the assay on MALME-3M melanoma; over 100 µM in the assay with SNB-19 CNS; over 100 µM in the assay with SN12C renal; over 100 µM in the assay on SK-MEL-28 melanoma; 2.84 µM in the assay with NCI-H522 lung. Moreover, the TGI in the assay on SR leukemia and in the assay on U251 CNS was over 100 µM each time.
Take `COc1ccc(Cc2cnc(NC(=O)c3sc4ccccc4c3Cl)s2)cc1`: the GI50 in the assay with SK-MEL-5 melanoma was 0.335 µM; in the assay on MALME-3M melanoma it was 0.81 µM; in the assay on SNB-19 CNS, 0.461 µM; in the assay on SN12C renal, 0.687 µM; in the assay with SK-MEL-28 melanoma it was 3.84 µM; with NCI-H522 lung it was 0.279 µM. Further, the GI50 with HS 578T breast is 0.336 µM; with SR leukemia, 0.31 µM; in the assay on U251 CNS it was 0.382 µM; with CCRF-CEM leukemia, 0.402 µM. For the same compound, the TGI in the assay on SK-MEL-5 melanoma is 3.56 µM; in the assay with MALME-3M melanoma, over 100 µM; with SNB-19 CNS, over 100 µM; with SN12C renal it was over 100 µM; with SK-MEL-28 melanoma it was over 100 µM; in the assay with HS 578T breast, over 100 µM. Moreover, the TGI with SR leukemia, in the assay on U251 CNS and in the assay with CCRF-CEM leukemia was over 100 µM throughout.
As for `CCCN(CCC)CCCNC(=O)c1cc2c(-c3ccc(OC)c(OC)c3)nn(C)c2s1`, the GI50 in the assay with SK-MEL-5 melanoma was 15.4 µM; with MALME-3M melanoma, 18.4 µM; in the assay on SNB-19 CNS it was 34.2 µM; in the assay on SN12C renal it was 54.9 µM; in the assay with SK-MEL-28 melanoma, 16.6 µM; in the assay with NCI-H522 lung it was 16.6 µM. Moreover, the GI50 with HS 578T breast is 22.9 µM; in the assay on SR leukemia it was 11.9 µM; with U251 CNS it was 25.3 µM; in the assay on CCRF-CEM leukemia it was 20.3 µM. Also, the concentration for total growth inhibition (TGI) was 29 µM with SK-MEL-5 melanoma; 35.8 µM in the assay on MALME-3M melanoma; over 100 µM with SNB-19 CNS; over 100 µM with SN12C renal; 32.1 µM with SK-MEL-28 melanoma; 41.3 µM in the assay with NCI-H522 lung. Moreover, the TGI was over 100 µM with HS 578T breast, 58.9 µM in the assay with SR leukemia, over 100 µM with U251 CNS and 65.6 µM in the assay with CCRF-CEM leukemia.
As to `OC(COc1cccc2ccccc12)CN1CCN(c2ccccc2)CC1` (configuration not stated), the GI50 with SK-MEL-5 melanoma is 15.9 µM; with MALME-3M melanoma, 15.3 µM; in the assay on SNB-19 CNS, 15.8 µM; in the assay with SN12C renal, 16.4 µM; with SK-MEL-28 melanoma, 17 µM; with NCI-H522 lung, 14.4 µM. Moreover, the GI50 is 15.8 µM in the assay with HS 578T breast, 16.1 µM in the assay with SR leukemia, 17.3 µM with U251 CNS and 17.9 µM in the assay with CCRF-CEM leukemia. In addition, the TGI in the assay with SK-MEL-5 melanoma was determined as 29.9 µM; with MALME-3M melanoma, 31.4 µM; with SNB-19 CNS, 30.7 µM; with SN12C renal it was 31 µM; in the assay with SK-MEL-28 melanoma it was 31.6 µM; in the assay on NCI-H522 lung it was 29.2 µM. Moreover, the TGI in the assay with HS 578T breast stood at 47.3 µM; in the assay on SR leukemia, 41.3 µM; in the assay with U251 CNS, 32.1 µM; with CCRF-CEM leukemia, 53.2 µM.
